Experimental data published in US10189845B2, “4,6-substituted-pyrazolo[1,5-a]pyrazines as janus kinase inhibitors” (ARRAY BIOPHARMA INC., priority 2014, dated 2019).
Where two headings read alike, the source gives them in different places.

Assays:
Type in all cases: biochemical
JAK1 = JAK1 (Homo sapiens (Human), UniProt P23458); experiment: JAK1 Inhibition Assay (Example B, Omnia kinase fluorescence peptide substrate assay)
Description: (§1) The assays described in Examples A, B, C and D for the determination of Tyk2, JAK1, JAK2 and JAK3 kinase activity, respectively, utilized the Omnia® Kinase fluorescence peptide substrate-based technology (Invitrogen). The specific components of the assay mixture are described in Examples A, B, C and D. In these assays, Mg^2+ is chelated upon phosphorylation of the Omnia peptide by the kinase to form a bridge between the chelation-enhanced fluorophore Sox and the phosphate, resulting in an increase in fluorescence emission at 485 nm when excited at […]. The reactions were therefore read at excitation 360 nm and emission was measured at 485 nm every 50 seconds for 45 minutes using a PerkinElmer EnVision Multilabel Plate Reader.
(§2) The final buffer conditions for Tyk2, JAK1, JAK2, and JAK3 assays were as follows: 25 mM HEPES, pH 7.4, 10 mM MgCl2, 0.01% Triton X-100 and 1 mM DTT.
(§3) Two-μL aliquots of these were transferred to a fresh plate for a ten-fold intermediate dilution with assay buffer. Five-μL aliquots of the diluted compounds were then transferred to 20-μL of assay mixtures described in Examples A, B, C and D for a final concentration of DMSO of 2%. […] For each plate, percent of control (POC) values were calculated for each well according to the following equation: […]
(§4) IC50's were estimated from the POC's using a standard 4-parameter logistic model:
(§5) The IC50 is defined as the concentration of inhibitor at which the POC equals 50 for the fitted curve.
(§6) Compounds of Formula I were screened for their ability to inhibit JAK1 using the general enzyme inhibition assay method, in which the assay mixture contained 1 mM ATP, 8 μM Omnia® Y12 peptide (Catalog # IVGN KPZ3121C; Invitrogen Corporation, Carlsbad, Calif.) and 12.5 nM JAK1 in a total volume of 25 μL. JAK1 was purchased from Invitrogen Corporation, Carlsbad, Calif. (catalog # IVGN PV4775).

JAK3 = JAK3 (Homo sapiens (Human), UniProt P52333); experiment: JAK3 Inhibition Assay (Example D, Omnia kinase fluorescence peptide substrate assay)
Chain of JAK3 (P52333 whole entry): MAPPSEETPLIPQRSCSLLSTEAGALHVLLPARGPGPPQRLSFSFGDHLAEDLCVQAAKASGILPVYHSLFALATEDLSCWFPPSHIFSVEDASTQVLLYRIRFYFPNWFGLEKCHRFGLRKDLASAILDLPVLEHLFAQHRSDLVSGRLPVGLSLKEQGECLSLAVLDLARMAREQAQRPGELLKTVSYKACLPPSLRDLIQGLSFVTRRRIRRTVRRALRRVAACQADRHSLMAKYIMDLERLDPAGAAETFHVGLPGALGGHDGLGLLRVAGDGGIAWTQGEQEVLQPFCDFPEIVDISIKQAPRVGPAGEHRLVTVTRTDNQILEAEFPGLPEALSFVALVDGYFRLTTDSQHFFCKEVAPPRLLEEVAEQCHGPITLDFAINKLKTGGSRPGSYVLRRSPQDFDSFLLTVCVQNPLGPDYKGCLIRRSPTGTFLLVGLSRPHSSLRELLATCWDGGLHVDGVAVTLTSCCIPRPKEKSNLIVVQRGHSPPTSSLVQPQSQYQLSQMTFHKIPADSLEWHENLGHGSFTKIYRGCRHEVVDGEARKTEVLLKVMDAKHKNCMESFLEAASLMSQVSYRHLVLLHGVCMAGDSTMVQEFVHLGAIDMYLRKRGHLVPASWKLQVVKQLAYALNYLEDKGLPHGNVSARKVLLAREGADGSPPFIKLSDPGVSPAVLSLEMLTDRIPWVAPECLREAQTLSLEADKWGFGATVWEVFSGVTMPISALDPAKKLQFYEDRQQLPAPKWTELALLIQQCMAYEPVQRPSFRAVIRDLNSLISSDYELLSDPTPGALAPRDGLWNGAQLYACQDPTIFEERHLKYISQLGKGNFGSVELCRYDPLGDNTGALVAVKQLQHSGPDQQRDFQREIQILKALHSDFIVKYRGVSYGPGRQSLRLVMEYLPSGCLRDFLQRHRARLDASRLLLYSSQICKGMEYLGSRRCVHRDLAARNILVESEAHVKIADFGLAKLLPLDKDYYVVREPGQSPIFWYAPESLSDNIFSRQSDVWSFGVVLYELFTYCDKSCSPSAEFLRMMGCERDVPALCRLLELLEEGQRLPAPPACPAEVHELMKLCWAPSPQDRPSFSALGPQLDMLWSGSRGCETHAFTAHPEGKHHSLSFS
Description: as §1, §2, §3, §4, §5
as §6, with “JAK3” for “JAK1”, “10” for “8”, “Y7” for “Y12”, “KNZ3071C,” for “KPZ3121C;”, “2” for “12.5”, “PV4080).” for “PV4775).”

Human Tyk2 kinase domain = Human Tyk2 kinase domain (Homo sapiens (Human), UniProt P29597); experiment: Tyk2 Inhibition Assay (Example A, Omnia kinase fluorescence peptide substrate assay); conditions: TYK2 Enzyme IC50 1 mM ATP, averaged IC50 ranges
Chain of Human Tyk2 kinase domain (P29597 886-1187): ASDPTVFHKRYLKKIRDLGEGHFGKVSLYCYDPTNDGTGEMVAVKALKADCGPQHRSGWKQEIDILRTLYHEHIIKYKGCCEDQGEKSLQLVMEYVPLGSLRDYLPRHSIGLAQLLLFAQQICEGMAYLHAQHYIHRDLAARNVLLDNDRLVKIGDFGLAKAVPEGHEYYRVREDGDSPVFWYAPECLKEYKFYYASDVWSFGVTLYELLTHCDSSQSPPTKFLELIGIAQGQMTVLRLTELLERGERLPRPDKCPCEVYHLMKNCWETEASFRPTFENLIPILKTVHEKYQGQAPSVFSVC
Description: as §1, §2, §3, §4, §5
Compounds of Formula I were screened for their ability to inhibit Tyk2 using the general enzyme inhibition assay method, in which the assay mixture contained 1 mM ATP, 8 μM Omnia Y12 peptide (Catalog # IVGN KPZ3121C; Invitrogen Corporation, Carlsbad, Calif.) and 1 nM Tyk2 in a total volume of 25 μL. Human Tyk2 kinase domain, comprising amino acids 886 to 1187 with 10 additional histidine residues (histidine tag) on the carboxy terminus, was expressed and purified from bacculovirus in-house at Array BioPharma Inc. (Boulder, Colo.). The histidine tag was cleaved after purification using standard conditions.

JAK2 = JAK2 (Homo sapiens (Human), UniProt O60674); experiment: JAK2 Inhibition Assay (Example C, Omnia kinase fluorescence peptide substrate assay); conditions: JAK2 Enzyme IC50 1 mM ATP, averaged IC50 ranges
Chain of JAK2 (O60674 whole entry): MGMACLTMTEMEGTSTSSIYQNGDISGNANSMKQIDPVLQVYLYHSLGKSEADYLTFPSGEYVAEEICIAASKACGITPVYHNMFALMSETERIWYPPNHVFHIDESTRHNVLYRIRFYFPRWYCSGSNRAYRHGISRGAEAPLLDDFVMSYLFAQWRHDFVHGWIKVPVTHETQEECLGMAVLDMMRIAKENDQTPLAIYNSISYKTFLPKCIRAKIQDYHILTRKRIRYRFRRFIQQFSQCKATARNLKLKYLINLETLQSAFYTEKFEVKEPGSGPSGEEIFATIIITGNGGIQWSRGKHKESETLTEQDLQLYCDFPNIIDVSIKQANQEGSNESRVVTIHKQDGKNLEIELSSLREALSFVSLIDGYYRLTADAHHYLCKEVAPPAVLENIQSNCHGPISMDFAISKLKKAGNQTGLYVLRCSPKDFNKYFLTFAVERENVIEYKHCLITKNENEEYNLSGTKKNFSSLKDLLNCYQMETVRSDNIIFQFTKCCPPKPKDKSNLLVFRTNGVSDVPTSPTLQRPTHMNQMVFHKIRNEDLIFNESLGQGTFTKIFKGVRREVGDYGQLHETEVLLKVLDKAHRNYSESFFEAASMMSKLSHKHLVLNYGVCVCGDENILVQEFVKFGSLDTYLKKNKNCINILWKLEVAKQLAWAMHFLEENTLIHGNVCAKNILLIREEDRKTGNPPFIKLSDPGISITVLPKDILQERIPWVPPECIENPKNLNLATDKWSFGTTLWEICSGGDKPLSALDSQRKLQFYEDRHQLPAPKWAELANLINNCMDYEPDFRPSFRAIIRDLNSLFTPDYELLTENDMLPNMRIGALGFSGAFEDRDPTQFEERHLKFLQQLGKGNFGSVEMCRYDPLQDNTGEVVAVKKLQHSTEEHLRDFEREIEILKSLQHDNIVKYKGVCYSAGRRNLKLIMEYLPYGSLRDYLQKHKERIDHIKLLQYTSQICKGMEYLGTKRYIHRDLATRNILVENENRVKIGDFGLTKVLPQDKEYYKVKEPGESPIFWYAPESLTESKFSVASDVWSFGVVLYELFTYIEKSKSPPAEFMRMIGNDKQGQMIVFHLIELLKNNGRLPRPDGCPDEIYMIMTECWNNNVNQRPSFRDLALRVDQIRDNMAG
Description: as §1, §2, §3, §4, §5
as §6, with “JAK2” for “JAK1”, “10” for “8”, “Y7” for “Y12”, “KNZ3071C,” for “KPZ3121C;”, “4” for “12.5”, “PV4288).” for “PV4775).”

[1] = JAK1 Enzyme IC50 1 mM ATP, 1 mM ATP, averaged IC50 ranges

Chain of JAK1 (P23458 whole entry): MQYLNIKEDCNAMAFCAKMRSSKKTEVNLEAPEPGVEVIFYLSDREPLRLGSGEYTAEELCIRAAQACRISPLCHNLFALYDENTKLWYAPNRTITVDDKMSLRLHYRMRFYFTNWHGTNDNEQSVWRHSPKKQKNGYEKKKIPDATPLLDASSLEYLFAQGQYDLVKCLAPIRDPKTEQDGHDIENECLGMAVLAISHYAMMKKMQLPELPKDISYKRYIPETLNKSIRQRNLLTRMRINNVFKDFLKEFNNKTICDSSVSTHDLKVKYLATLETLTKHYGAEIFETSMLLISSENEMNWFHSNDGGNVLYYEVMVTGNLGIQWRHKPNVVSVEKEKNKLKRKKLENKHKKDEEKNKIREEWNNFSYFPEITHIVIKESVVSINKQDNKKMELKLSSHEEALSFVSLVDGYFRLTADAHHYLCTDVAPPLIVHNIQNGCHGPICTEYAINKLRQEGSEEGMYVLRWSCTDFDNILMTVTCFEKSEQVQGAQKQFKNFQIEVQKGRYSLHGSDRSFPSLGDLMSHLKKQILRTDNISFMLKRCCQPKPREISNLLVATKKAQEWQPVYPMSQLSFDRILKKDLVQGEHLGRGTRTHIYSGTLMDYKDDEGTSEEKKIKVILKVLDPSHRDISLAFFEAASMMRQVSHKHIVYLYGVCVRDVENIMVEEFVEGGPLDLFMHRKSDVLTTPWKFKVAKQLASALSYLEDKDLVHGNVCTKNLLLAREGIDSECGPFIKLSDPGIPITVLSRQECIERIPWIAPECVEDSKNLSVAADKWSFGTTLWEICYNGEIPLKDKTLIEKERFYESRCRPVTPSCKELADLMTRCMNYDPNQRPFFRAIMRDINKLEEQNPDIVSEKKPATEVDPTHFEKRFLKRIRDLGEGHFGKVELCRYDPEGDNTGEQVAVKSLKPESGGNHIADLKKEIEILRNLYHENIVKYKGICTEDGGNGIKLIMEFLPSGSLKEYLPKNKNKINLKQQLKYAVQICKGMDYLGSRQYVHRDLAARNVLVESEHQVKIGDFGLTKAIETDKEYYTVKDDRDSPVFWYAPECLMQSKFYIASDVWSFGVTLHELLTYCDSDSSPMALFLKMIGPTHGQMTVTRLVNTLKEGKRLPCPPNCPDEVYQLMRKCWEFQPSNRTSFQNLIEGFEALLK

Compound	IC50 (JAK1) [nM]	IC50 (JAK3) [nM]	IC50 (Human Tyk2 kinase domain) [nM]	IC50 (JAK2) [nM]	IC50 (JAK1; [1]) [nM]
CCC(CC)n1cc(-c2nc(-c3cnn([C@H](C)[C@H](O)CO)c3)cn3nccc23)cn1 (single isomer, unassigned) [Example 90]	100 to 1000	1000 to 10000	10 to 100	10 to 100	
CCC(CC)n1cc(-c2nc(-c3cnn([C@@H](C)[C@@H](O)CO)c3)cn3nccc23)cn1 (single isomer, unassigned) [Example 91]	100 to 1000	1000 to 10000	10 to 100	10 to 100	
CCC(CC)n1cc(-c2nc(-c3cnn(C[C@@H](CN)OC)c3)cn3nccc23)cn1 (single isomer, unassigned) [Example 148]	1000 to 10000	1000 to 10000	100 to 1000	100 to 1000	
C[C@@H]1CCCC[C@H]1n1cc(-c2nc(-c3cnn(C[C@@H](O)CO)c3)cn3nccc23)cn1 (single isomer, unassigned) [Example 151]		1000 to 10000	10 to 100	10 to 100	100 to 1000
C[C@@H]1CCCC[C@H]1n1cc(-c2nc(-c3cnn(C[C@H](O)CO)c3)cn3nccc23)cn1 (single isomer, unassigned) [Example 152]		1000 to 10000	10 to 100	10 to 100	1000 to 10000
CCC(CC)n1cc(-c2nc(-c3cnn([C@@H]4CCC[C@H]4O)c3)cn3nccc23)cn1 (single isomer, unassigned) [Example 153]		1000 to 10000	10 to 100	10 to 100	100 to 1000
CCC(CC)n1cc(-c2nc(-c3cnn([C@@H](C)[C@H](C)O)c3)cn3nccc23)cn1 (single isomer, unassigned) [Example 155]		1000 to 10000	10 to 100	10 to 100	100 to 1000
CCC(CC)n1cc(-c2nc(-c3cnn([C@H](C)[C@H](C)O)c3)cn3nccc23)cn1 (single isomer, unassigned) [Example 158]		1000 to 10000	10 to 100	10 to 100	10 to 100
CCC(C1CC1)n1cc(-c2nc(-c3cnn(C[C@@H](O)CO)c3)cn3nccc23)cn1 (single isomer, unassigned) [Example 214]				100 to 1000	
CCC[C@H](C)n1cc(-c2nc(-c3cnn(C[C@H](O)CO)c3)cn3nccc23)cn1 [Example 86, (S)-3-(4-(4-(1-((S)-pentan-2-yl)-1H-pyrazol-4-yl)pyrazolo[1,5-a]pyrazin-6-yl)-1H-pyrazol-1-yl)propane-1,2-diol]		1000 to 10000		10 to 100	100 to 1000
CCC(CC)n1cc(-c2nc(-c3cnn([C@H]4CC[C@@H](O)CC4)c3)cn3nccc23)cn1 [Example 121, cis-4-(4-(4-(1-(pentan-3-yl)-1H-pyrazol-4-yl)pyrazolo[1,5-a]pyrazin-6-yl)-1H-pyrazol-1-yl)cyclohexanol]	100 to 1000		10 to 100	10 to 100	
CCC(CC)n1cc(-c2nc(-c3cnn(C4CN(C(=O)C(C)(C)O)C4)c3)cn3nccc23)cn1 [Example 176, 2-hydroxy-2-methyl-1-(3-(4-(4-(1-(pentan-3-yl)-1H-pyrazol-4-yl)pyrazolo[1,5-a]pyrazin-6-yl)-1H-pyrazol-1-yl)azetidin-1-yl)propan-1-one]	100 to 1000	1000 to 10000		100 to 1000	
CCC(CC)n1cc(-c2nc(-c3cnn(C4CN(C(=O)C5(O)CC5)C4)c3)cn3nccc23)cn1 [Example 177, (1-hydroxycyclopropyl)(3-(4-(4-(1-(pentan-3-yl)-1H-pyrazol-4-yl)pyrazolo[1,5-a]pyrazin-6-yl)-1H-pyrazol-1-yl)azetidin-1-yl)methanone]	100 to 1000	1000 to 10000		10 to 100	

Second part, the compound after the results:

IC50 (JAK1) [nM]	IC50 (JAK3) [nM]	IC50 (Human Tyk2 kinase domain) [nM]	IC50 (JAK2) [nM]	IC50 (JAK1; [1]) [nM]	Compound
100 to 1000	1000 to 10000	10 to 100	10 to 100		CCC(CC)n1cc(-c2nc(-c3cnn([C@H](C)[C@@H](O)CO)c3)cn3nccc23)cn1 (single isomer, unassigned) [Example 92]
	1000 to 10000	1000 to 10000	100 to 1000	1000 to 10000	CC1(C)CCC[C@H]1n1cc(-c2nc(-c3cnn(C[C@@H](O)CO)c3)cn3nccc23)cn1 (single isomer, unassigned) [Example 96]
1000 to 10000	1000 to 10000	10 to 100	10 to 100		CCC(CC)n1cc(-c2nc(-c3cnn(C[C@H](CN)OC)c3)cn3nccc23)cn1 (single isomer, unassigned) [Example 149]
1000 to 10000	1000 to 10000	10 to 100	10 to 100		C[C@@H]1CCCC[C@H]1n1cc(-c2nc(-c3cnn(C(CO)CO)c3)cn3nccc23)cn1 (single isomer, unassigned) [Example 150]
	1000 to 10000	10 to 100	10 to 100	100 to 1000	CCC(CC)n1cc(-c2nc(-c3cnn([C@H]4CCC[C@@H]4O)c3)cn3nccc23)cn1 (single isomer, unassigned) [Example 154]
	1000 to 10000	10 to 100	10 to 100	100 to 1000	CCC(CC)n1cc(-c2nc(-c3cnn([C@H](C)[C@@H](C)O)c3)cn3nccc23)cn1 (single isomer, unassigned) [Example 156]
	1000 to 10000	10 to 100	10 to 100	100 to 1000	CCC(CC)n1cc(-c2nc(-c3cnn([C@@H](C)[C@@H](C)O)c3)cn3nccc23)cn1 (single isomer, unassigned) [Example 157]
	1000 to 10000	100 to 1000	100 to 1000	1000 to 10000	CC[C@H](C1CCC1)n1cc(-c2nc(-c3cnn(C[C@@H](O)CO)c3)cn3nccc23)cn1 (single isomer, unassigned) [Example 196]
		10 to 100	10 to 100		CC[C@H](CC(F)(F)F)n1cc(-c2nc(-c3cnn(C[C@@H](O)CO)c3)cn3nccc23)cn1 (single isomer, unassigned) [Example 209]
		100 to 1000	100 to 1000		CCC(CC(F)(F)F)n1cc(-c2nc(-c3cnn(C[C@@H](O)CO)c3)cn3nccc23)cn1 (single isomer, unassigned) [Example 210]
10 to 100		10 to 100	< 10		CCC(CC)n1cc(-c2nc(-c3cnn([C@H]4CC[C@H](O)CC4)c3)cn3nccc23)cn1 [Example 118, trans-4-(4-(4-(1-(pentan-3-yl)-1H-pyrazol-4-yl)pyrazolo[1,5-a]pyrazin-6-yl)-1H-pyrazol-1-yl)cyclohexanol]
100 to 1000		< 10	10 to 100		CCC(CC)n1cc(-c2nc(-c3cnn([C@H]4C[C@@](C)(O)C4)c3)cn3nccc23)cn1 [Example 162, (1s,3s)-1-methyl-3-(4-(4-(1-(pentan-3-yl)-1H-pyrazol-4-yl)pyrazolo[1,5-a]pyrazin-6-yl)-1H-pyrazol-1-yl)cyclobutanol]
			10 to 100	100 to 1000	CCC(CC)n1cc(-c2nc(-c3cnn([C@@H](C)CO)c3)cn3nccc23)cn1 [compound 126, (S)-2-(4-(4-(1-(pentan-3-yl)-1H-pyrazol-4-yl)pyrazolo[1,5-a]pyrazin-6-yl)-1H-pyrazol-1-yl)propan-1-ol]
